Test results: patent US20220030866A1, “CONJUGATES OF AUXIN ANALOGS” (The State of Israel, Ministry of Agriculture & Rural …, priority 2019, published 2022)

Assay: 4-CPA levels in Eucalyptus grandis cuttings by LC-MS (translocation, release from conjugates)
Assay type: in vivo
Protocol: E. grandis cuttings were harvested at time 0, 1, 6 and 24 hours after the indicated treatments. The cutting foliage and basal ends (approximately 2-3 cm of the base) were harvested separately using a sharp pruning shear, rinsed well under a tap water stream, wiped with a paper towel and frozen in liquid nitrogen. Then, each sample was grinded well while still frozen, using an IKA lab mill. For the analysis, 3-6 technical replicates, weight 190-240 mg, were taken from each sample into fresh 2 ml Eppendorf™ tubes. Auxins were extracted in 1 ml of cold 79% isopropanol, 20% methanol and 1% acetic acid solution containing 20 ng of […] IBA and IAA as internal standards. The tubes were vortexed for 1 hr at 4° C. and then centrifuged at 14,000 RPM for 15 minutes. The supernatants were transferred to fresh 2 ml Eppendorf™ tubes. Two more extraction cycles were performed using 0.5 ml of extraction solvent without the internal standards. The tubes containing the collected supernatants were placed in a SpeedVac™ centrifuge for solvent evaporation under room temperature. The pellets were dissolved in pre-chilled 200 μl of 50% methanol, centrifuged, and the supernatant was filtered through […] PDFV syringe filters 13 mm into fresh 2 ml tubes. The ready extractions were kept under −20° C. till analyzed.
LC-MS analyses were conducted using UPLC-Triple Quadrupole-MS device (Waters Xevo TQ MS). Separation was performed on Waters Acquity™ UPLC BEH C18 1.7 μm 2.1×100 mm column with a VanGuard™ precolumn (BEH C18 1.7 μm 2.1×5 mm). Chromatographic and MS parameters were as follows: the mobile phase consisted of water (phase A) and acetonitrile (phase B), both containing 0.1% formic acid in the gradient elution mode. The solvent gradient program was as follows: […]
The flow rate was 0.3 ml/minute, and the column temperature was kept at 35° C. The analyses were performed using the ESI source in negative ion mode with the following settings: capillary voltage 3.1 kV, cone voltage 30 V, desolvation temperature 400° C., desolvation gas flow 565 liters/hour, source temperature 140° C. Quantitation was performed using MRM acquisition by monitoring the 185/127, 185/141, RT=5.77, dwell time of 161 msec for each transition. Calibration curve was used to calculate the concentration of 4-CPA. Acquisition of LC-MS data was performed under MassLynx™ V4.1 software (Waters).
In order to determine whether trend observed in Arabidopsis occurs also in eucalyptus cuttings, the 4-CPA translocation directionality was first examined by treating cuttings with 4-CPA (100 μM) either by submergence of the cutting base or by spraying the leaves. At several time points (i.e. 0, 1, 6 and 24 hours), the cutting base (bottom 2 cm) and the leaves were separately extracted (with isopropanol/methanol/acetic acid solution) and 4-CPA levels were determined by HPLC-MS/MS.
In order to evaluate the rate of conjugates hydrolysis, 4-CPA levels were monitored following treatment with Compounds 1s and 1t. Cuttings were treated with IBA alone (by submerging the cutting base), or with IBA and Compound 1s or it by submerging the cutting base and by spraying the leaves with Compound 1s or 1t. Cutting bases (bottom 2 cm) and leaves were separately extracted 6, 24 and 48 hours after treatment and hormones levels were determined by HPLC-MS/MS.

[1] = 100 μM 4-CPA applied to the cutting base

O=C(O)COc1ccc(Cl)cc1 [Compound 4-CPA, 4-chloro-phenoxyacetic acid, reference compound]
4-CPA level locally (leaves) and in the cutting base (100 μM 4-CPA applied to leaves by spraying): about 150 ng/gram | 4-CPA level in leaves [1]: less than 10 ng/gram | 4-CPA level in the cutting base (local) [1]: about 275 ng/gram | time at which 4-CPA levels peaked following application to the leaves (100 μM 4-CPA sprayed on leaves): 6 h | 4-CPA levels throughout the measurements (treatment with free 4-CPA or with conjugate): 250-300 ng/gram
